In patent publication US20100266591A1, “METHOD OF TREATING ERYTHROPOIETIN HYPORESPONSIVE ANEMIAS” (priority 2008, published 2010):
Entries after “also recorded” stand apart in the source; their conditions may differ. Values belong to the molecule of their own block, whether it stands above or below them.

Experiments:
UT7 cells [1] = settings: UT-7EPO cells; cited from earlier work
[2] = cited from earlier work
normal rats = settings: single subcutaneous dose, compared to rhEPO and darbepoetin; cited from earlier work
[3] = per mg of protein; cited from earlier work
UT7 cells [4] = experiment: UT7 cell proliferation assay; assay type: cell-based, human
Protocol: Particularly useful in identifying and calibrating compositions useful in the method of the invention is the UT7 cell proliferation assay. The UT7 is a human leukemic cell line that has been adapted to become EPO-dependant. In order to use the UT7 cell proliferation assay for selection of a composition or a dose to be administered to a subject having low blood hemoglobin content, the cells are washed free or normal culture medium and starved for EPO for 24 hours prior to assay. For example, the UT-7 cell starvation can proceed in IMDM media with added L-glutamine and FBS at 5% (I5Q). The cells are then prepared and suspended in the appropriate media to a final concentration of 6×10^5 cells/mL (yields a final concentration of 30,000 cells per 96-well chamber). An EPO standard is prepared by diluting EPO stock to 5 ng/mL followed by 1:2 serial dilutions down to a concentration of 0.0098 ng/mL in I5Q media. […] Cell proliferation is assessed using a vital stain such as Promega's MTS solution (Promega, Madison, Wis.) according to the manufacturer's instructions. The EC50 is calculated from a curve fit of concentration vs proliferation as measured by the increase in absorbance of the chromophore or other signal. […]
Using UT-7 cells, which display EPO-R and require an ESA for proliferation, competitive binding for the human EPO-R between CNTO 530 inhibited and ^125I-EPO was measured. […]

Tg197 mice = experiment: Hgb response in Tg197 mice (anemia of chronic disease); assay type: in vivo, mouse
Description: The pharmacodynamics of epoetin-α in C57Bl/6 and Tg197 mice was first compared. Secondly, CNTO 530, epoetin-α and darbepoetin in Tg197 mice was compared.
Materials and Methods. Nine-week old heterozygous Tg197-CBA F1 transgenic mice, age-matched C57Bl/6 mice and age-matched CBA-057Bl/6 F1 hybrid (CBF1) mice were obtained from Ace Laboratories (Boyertown, Pa.), Ace Laboratories and Jackson Laboratories (Bar Harbor, Me.), respectively. Founder Tg197 mice for the transgenic colony was obtained from G. Kollias. The breeding stock was maintained as homozygotes and received weekly injections of murine anti-human TNFa antibodies (10 mg/kg intraperitoneally) to control their arthritis. For these experiments, homozygous Tg197 males were bred to CBA females. CBF1 mice were used because their disease progresses more slowly than that seen in homozygous Tg197 mice. The mice were group housed (4 per cage) in filter-topped plastic shoebox style cages. The animals were individually identified with ear tags, placed at least a week prior to the start of the study. […] All mice were maintained in the pathogen-free vivarium at Centocor R&D, Inc., Radnor Pa. The Institutional Animal Care and Use Committee at Centocor approved all associated procedures.
CNTO 530, recombinant human erythropoietin (epoetin-α, OrthoBiotech, Raritian N.J.), darbepoetin (Amgen, Thousand Oaks, Calif.), and PBS. Doses were expressed as mg/kg or UT-7 Units/kg (U/kg).
To comparative the pharmacodynamics of epoetin-α in C57Bl/6 and Tg197 mice, study animals were assigned to groups as shown in Table 1. On Day 0 the mice received a weight-adjusted, subcutaneous injection of test article (freshly diluted from stock) or PBS. Mice were euthanized by CO2 asphyxiation and blood was collected for each sample. […]
Hematology: Blood samples from mice in the model characterization and pharmacodynamic studies were collected at the times indicated in Tables 1 and 2. […] Data are expressed as group mean±standard deviation. Results: Data are expressed as the group mean and standard deviation or as group mean change from control. […]

C57Bl/6 mice = experiment: Hgb response in C57Bl/6 mice (Example 1); assay type: in vivo, mouse
Description: To comparative the pharmacodynamics of epoetin-α in C57Bl/6 and Tg197 mice, study animals were assigned to groups as shown in Table 1. On Day 0 the mice received a weight-adjusted, subcutaneous injection of test article (freshly diluted from stock) or PBS. Mice were euthanized by CO2 asphyxiation and blood was collected for each sample.
Hematology: Blood samples from mice in the model characterization and pharmacodynamic studies were collected at the times indicated in Tables 1 and 2. Blood was collected from mice anesthetized with a CO2 mixture via open chest cardiac puncture into commercially prepared EDTA coated microtubes. Blood analyses were performed on whole blood using the ADVIA 120 blood analyzer (Bayer Diagnostics, Tarrytown, N.Y.). Data are expressed as group mean±standard deviation. Results: Data are expressed as the group mean and standard deviation or as group mean change from control. Mean values for the PBS control mice were used as the Day 1 baseline. For graphing, the nominal day may differ from the actual day of blood sampling by 1 day. Mean (±standard deviation) hematological data for 30 CBF1 and 50 Tg197 PBS control mice (9 to 13 weeks old) are shown in Table 3.

W/Wv mice = experiment: Hgb response in c-kit deficient (W/Wv) mice; assay type: in vivo, mouse; settings: single subcutaneous dose, 12,000 U/kg
Protocol: Materials and Methods. Male and female WBB6F1/J-KitW/KitW-v (black eyed, white coat, affected; Related genotype ala KitW/KitW-v) (W/Wv) mice were obtained from Jackson Laboratories, Bar Harbor, Me. at 5 to 7 weeks of age. These mice are deficient in c-kit the receptor for SCF. The mice were group housed in filter topped plastic shoe-box style cages. CNTO 530 (30 UT-7 Units/ug) and epoetin-α (120 UT-7 Units/ug) were tested and PBS pH 7.4 was used as the control article. Study Design: On Day 1 mice received a weight-adjusted, subcutaneous (s.c.) dose of epoetin-α, CNTO 530 or PBS (10 mL/kg) according to Table 4. Three mice/sex were bled per group at each designated time point according to Table 4. On Days 4, 9, 14, and 28 (males) or 30 (females), mice were anesthetized with CO2 and blood samples ([…]) taken via open chest cardiac puncture for hematology. Blood was collected directly into tubes prepared with EDTA and mixed thoroughly for approximately 10 seconds and placed on a rocker to prevent coagulation. Whole blood was be analyzed using an ADVIA 120 hematology analyzer.
Results. Data are expressed as the group mean and standard deviation or as group mean change from control. Mean values for the PBS control mice were used as the Day 1 baseline. For graphing, the nominal day may differ from the actual day of blood sampling by 1 day.

ala +/+ mice = experiment: Hgb response in normal ala +/+ littermates; assay type: in vivo, mouse; settings: single subcutaneous dose, 12,000 U/kg
[5] = target: T1, EPO-receptor (form in the assay not stated) (human, UniProt P19235 25-508, limits assumed); experiment: assay not stated
T1 sequence: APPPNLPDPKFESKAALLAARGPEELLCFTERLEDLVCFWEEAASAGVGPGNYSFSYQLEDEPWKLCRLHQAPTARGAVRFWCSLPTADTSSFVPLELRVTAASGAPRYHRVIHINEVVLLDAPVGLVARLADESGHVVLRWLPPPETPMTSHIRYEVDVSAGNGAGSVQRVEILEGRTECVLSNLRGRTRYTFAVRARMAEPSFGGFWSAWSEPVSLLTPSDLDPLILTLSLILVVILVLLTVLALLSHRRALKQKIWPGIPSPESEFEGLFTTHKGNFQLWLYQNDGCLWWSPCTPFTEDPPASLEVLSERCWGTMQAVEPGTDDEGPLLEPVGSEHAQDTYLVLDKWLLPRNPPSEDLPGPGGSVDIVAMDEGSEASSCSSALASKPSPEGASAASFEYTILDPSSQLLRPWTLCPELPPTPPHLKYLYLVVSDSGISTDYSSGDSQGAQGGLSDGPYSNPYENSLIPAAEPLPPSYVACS

[6] = target: T2, human EPO-R displayed on UT-7 cells (human, UniProt P19235 25-508); experiment: cell-based or functional assay
T2 sequence: T1 sequence

[7] = target: T2, human EPO-R displayed on UT-7 cells; experiment: competitive binding against 125I-EPO (0.5 nM) on UT-7 cells displaying human EPO-R
Protocol: Using UT-7 cells, which display EPO-R and require an ESA for proliferation, competitive binding for the human EPO-R between CNTO 530 inhibited and ¹²⁵I-EPO was measured.

Molecule: CNTO 528: EPO-mimetic peptide antibody fusion protein; disulfide-linked homodimer of SEQ ID NO: 2, two EMP1 copies and portions of human IgG
- fold less potent than rhEPO on a molar basis, growth stimulation (UT7 cells [1]): approximately 10 fold
- pharmacodynamic response ([2]; IV 0.03-0.9 mg/kg): prolonged, dose-dependent erythropoietic responses; also recorded: dose dependent increase in RBC count; also recorded: dose-dependent increase in soluble transferrin receptor concentration; also recorded: dose-dependent increase in endogenous EPO concentration
- tolerability ([2]; IV 0.03-0.9 mg/kg): well tolerated
- pharmacokinetics ([2]; IV): linear and approximately dose proportional
- mean Hgb concentration above baseline at last measurement ([2]; approximately 2.5 months after a single dose): 0.4 g/dL
- immunogenicity ([2]; human, in vivo): No immunogenicity was observed
- time of maximum effect on Hgb concentration ([2]; single IV dose): 22 days
- hematology response / efficacy (normal rats): longer-lived reticulocytosis and a longer-lived increase in hemoglobin; also recorded: only minor changes in red cell distribution width (RDW) or mean cell volume (MCV); also recorded: no effect on mean platelet volume (MPV); also recorded: efficacious in rat models of anemia and in a rat model of pure red cell aplasia

Molecule: Human urinary EPO: isolated human urinary EPO, international reference standard for EPO assays
- specific activity [3]: about 70,000 U/mg

Molecule: epoetin-α: recombinant human erythropoietin (OrthoBiotech), 166 amino acid sequence SEQ ID NO: 1
- in vitro activity (UT7 cells [4]): 120 UT-7 Units/ug
- EC50 (UT7 cells [4]; 48 hours, MTS): ~0.018 nM
- Hgb response (increase) (Tg197 mice; 0.3 mg/kg s.c., single dose): ~1 g/dL
- day Hgb returned to baseline (Tg197 mice; 0.3 mg/kg s.c., single dose): ≤ 8 days
- Hgb response (Tg197 mice; single s.c. dose, comparison at 30,000 U/kg): little dose response between 0.03 and 0.3 mg/kg
- day Hgb returned to baseline (C57Bl/6 mice; 0.3 mg/kg s.c., single dose): 15 days
- increase in Hgb (C57Bl/6 mice; 0.3 mg/kg s.c., single dose): ~1.5 g/dL
- Hgb response (C57Bl/6 mice; 0.03 and 0.3 mg/kg s.c.): dose-dependent increase in hemoglobin
- increase in hemoglobin (W/Wv mice): less than 1 g/dL
- increase in Hgb (ala +/+ mice): approximately 2 g/dL
- specific activity [3]: 100,000 to 200,000 U/mg

- Kd [5]: ~10 nM
- induction of UT-7 cell proliferation (EC50) [6]: ~0.055 nM
- potency against rHuEPO in a simple proliferation assay using UT-7 cells [6]: ~24 fold less potent than rHuEPO (molar)
- rescue of EPO-deprived UT-7 cells from apoptosis (EC50) [6]: ~0.021 nM
- IC50 [7]: ~60 nM
B1: CNTO 530 (Fc fusion)
chain: QIQGGTYSCHFGPLTWVCKPQGGGSCPPCPAPEAAGGPSVFLFPPKPKDTLMISRTPEVTCVVVDVSQEDPEVQFNWYVDGVEVHNAKTKPREEQFNSTYRVVSVLTVLHQDWLNGKEYKCKVSNKGLPSSIEKTISKAKGQPREPQVYTLPPSQEEMTKNQVSLTCLVKGFYPSDIAVEWESNGQPENNYKTTPPVLDSDGSFFLYSRLTVDKSRWQEGNVFSCSVMHEALHNHYTQKSLSLSLGK
notes: EPO-mimetic peptide antibody fusion protein; Homodimer joined by disulfide bonds through cysteines in the immunoglobulin-derived portion; May or may not be glycosylated; also called Dimeric EMP1 construct: CNTO 530
